Results from publication PMC10993126, “Capture of endogenous lipids in peptidiscs and effect on protein stability and activity” (iScience, 2024).

How the values were obtained:
[1] = test system: T1, SecYEG (HD-SecYEG; PD-SecYEG-CL); experiment: CL added before peptidisc reconstitution; SecA ATPase by Malachite green; SecA binding by clear-native PAGE; assay type: biochemical, Escherichia coli; conditions: 20:1 lipid to SecYEG molar ratio; with SecA; 1 mM ATP, 10 mM MgCl2, pH 8.8, 37°C; lipid activator
T1 construct: gene secY; read out with SecA; with Protein translocase subunit SecA

[2] = molecular target: the molecule itself; experiment: native gel or EMSA; 5-13% native PAGE with Coomassie staining of the DDM-MsbA and peptidisc-MsbA preparations (DDC, DLW, DHW)

T1 sequence (P0AG96 whole entry): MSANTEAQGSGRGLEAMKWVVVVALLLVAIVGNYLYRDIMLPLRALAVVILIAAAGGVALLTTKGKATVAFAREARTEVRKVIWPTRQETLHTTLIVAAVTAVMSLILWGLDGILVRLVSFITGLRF
T1 sequence (P0AGA2 whole entry, further chain): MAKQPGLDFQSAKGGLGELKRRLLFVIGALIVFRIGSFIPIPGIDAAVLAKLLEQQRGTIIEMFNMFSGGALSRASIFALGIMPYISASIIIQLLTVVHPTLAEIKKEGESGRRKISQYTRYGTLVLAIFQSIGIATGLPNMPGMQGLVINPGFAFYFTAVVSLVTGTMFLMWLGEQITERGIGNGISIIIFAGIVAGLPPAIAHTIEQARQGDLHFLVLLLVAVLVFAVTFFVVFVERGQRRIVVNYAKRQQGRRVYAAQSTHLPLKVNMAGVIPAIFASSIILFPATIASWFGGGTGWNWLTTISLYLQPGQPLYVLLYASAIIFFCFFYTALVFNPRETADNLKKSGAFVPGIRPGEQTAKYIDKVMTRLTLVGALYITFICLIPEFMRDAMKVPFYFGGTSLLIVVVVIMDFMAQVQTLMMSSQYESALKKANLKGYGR
T1 sequence (P10408 whole entry, further chain): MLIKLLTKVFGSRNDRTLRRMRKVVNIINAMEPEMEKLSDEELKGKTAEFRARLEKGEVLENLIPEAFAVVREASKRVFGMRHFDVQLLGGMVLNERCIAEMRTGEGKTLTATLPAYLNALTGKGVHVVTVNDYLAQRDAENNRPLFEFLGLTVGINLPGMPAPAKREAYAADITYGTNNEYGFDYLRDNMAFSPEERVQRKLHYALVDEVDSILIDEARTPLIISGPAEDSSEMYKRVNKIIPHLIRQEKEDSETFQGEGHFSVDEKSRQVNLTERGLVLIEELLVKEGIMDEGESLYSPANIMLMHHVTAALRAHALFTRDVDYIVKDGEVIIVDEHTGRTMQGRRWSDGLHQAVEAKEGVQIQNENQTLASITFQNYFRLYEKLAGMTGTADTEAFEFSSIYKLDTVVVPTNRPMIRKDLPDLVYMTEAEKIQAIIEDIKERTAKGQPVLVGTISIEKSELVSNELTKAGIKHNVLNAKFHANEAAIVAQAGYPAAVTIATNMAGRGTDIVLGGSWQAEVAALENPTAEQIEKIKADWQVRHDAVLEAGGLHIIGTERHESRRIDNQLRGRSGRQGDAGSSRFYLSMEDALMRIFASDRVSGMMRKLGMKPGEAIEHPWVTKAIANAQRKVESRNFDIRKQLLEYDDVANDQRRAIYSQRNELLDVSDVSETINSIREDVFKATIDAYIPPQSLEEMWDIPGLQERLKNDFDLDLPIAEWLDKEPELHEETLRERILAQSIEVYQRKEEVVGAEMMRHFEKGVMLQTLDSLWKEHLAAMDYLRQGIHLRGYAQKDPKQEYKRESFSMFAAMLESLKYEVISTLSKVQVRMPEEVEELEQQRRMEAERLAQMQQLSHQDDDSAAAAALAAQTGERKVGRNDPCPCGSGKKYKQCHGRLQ
T1 sequence (P0AG99 whole entry, further chain): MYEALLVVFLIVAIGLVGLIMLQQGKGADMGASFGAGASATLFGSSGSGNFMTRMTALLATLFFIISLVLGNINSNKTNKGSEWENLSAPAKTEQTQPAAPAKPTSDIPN

CCCCCCCC/C=C\CCCCCCCC(=O)O[C@H](COC(=O)CCCCCCCCCCCCCCC)COP(=O)(O)OCC(O)COP(=O)(O)OC[C@@H](COC(=O)CCCCCCCCCCCCCCC)OC(=O)CCCCCCC/C=C\CCCCCCCC (some centres unmarked) [CL, 1',3'-bis[1-palmitoyl-2-oleoyl-sn-glycero-3-phospho]-glycerol] was tested, and the “fold increase in SecA ATPase activity” value [1] was ~ 4 fold.

B1: His6-tagged MsbA (natural protein, UniProt P60752 1-582, looked up)
chain: MHNDKDLSTWQTFRRLWPTIAPFKAGLIVAGVALILNAASDTFMLSLLKPLLDDGFGKTDRSVLVWMPLVVIGLMILRGITSYVSSYCISWVSGKVVMTMRRRLFGHMMGMPVSFFDKQSTGTLLSRITYDSEQVASSSSGALITVVREGASIIGLFIMMFYYSWQLSIILIVLAPIVSIAIRVVSKRFRNISKNMQNTMGQVTTSAEQMLKGHKEVLIFGGQEVETKRFDKVSNRMRLQGMKMVSASSISDPIIQLIASLALAFVLYAASFPSVMDSLTAGTITVVFSSMIALMRPLKSLTNVNAQFQRGMAACQTLFTILDSEQEKDEGKRVIERATGDVEFRNVTFTYPGRDVPALRNINLKIPAGKTVALVGRSGSGKSTIASLITRFYDIDEGEILMDGHDLREYTLASLRNQVALVSQNVHLFNDTVANNIAYARTEQYSREQIEEAARMAYAMDFINKMDNGLDTVIGENGVLLSGGQRQRIAIARALLRDSPILILDEATSALDTESERAIQAALDELQKNRTSLVIAHRLSTIEKADEIVVVEDGVIVERGTHNDLLEHRGVYAQLHKMQFGQ
notes: The same protein was prepared with different amounts of endogenous lipid (DDC, DLW, DHW in peptidisc; DDM in detergent); also called DDC-MsbA; DLW-MsbA; source: E. coli BL21(DE3), membranes solubilized with DDM, purified (Ni-NTA), reconstituted in peptidiscs or kept in DDM
With B1 the “stoichiometry N” value [2] was 2.
